Measured values: US20260297131A1, “COMPOSITIONS AND METHODS FOR PEPTIDE-BASED MODULATORS OF HUMAN PAPILLOMAVIRUS ONCOPROTEIN E6” (priority 2023, published 2026)
Like-named read-outs stand apart in the source and are kept apart here. Square brackets hold non-standard residues; d marks the D form. Peptide text beside a SMILES is read from it. * marks the point of attachment. Acetyl(9-fluorenyl) = O=C(CC1c2ccccc2-c2ccccc21)*; Anthracene1carbonyl = O=C(c1cccc2cc3ccccc3cc12)*; 2Nal = N[C@@H](Cc1ccc2ccccc2c1)C(=O)O; Gly(cPent) = N[C@H](C(=O)O)C1CCCC1; X1 = O=C(Cn1c2ccccc2c2ccccc21)*; Aad = N[C@@H](CCCC(=O)O)C(=O)O; Cba = N[C@@H](CC1CCC1)C(=O)O; Aib = CC(C)(N)C(=O)O; Dha = C=C(N)C(=O)O

How the values were obtained:
MBP-16E6 [1] = biological target: T1, MBP-16E6 (Human papillomavirus 16, UniProt P03126, C104S/C118S/C147S/C87S); conditions: for improvement of binding relative to peptide 18: apparent Ki
MBP-16E6 [2] = biological target: T1, MBP-16E6; conditions: for crosslinking to MBP-16E6: LC-MS; for mono-crosslink yield at 1 h: 1 μM MBP-16E6, 4 μM Dha peptide; for mono-crosslink in 2 h: 2 h at 37° C., 10 eq. to protein 16E6
MBP-16E6 C58S = MBP-16E6 C58S (Human papillomavirus 16, UniProt P03126, C104S/C118S/C147S/C58S/C87S); conditions: 12 h, PBS, 37° C.
MBP-16E6 [3] = biological target: T1, MBP-16E6
MBP-16E6 L57A = MBP-16E6 L57A (Human papillomavirus 16, UniProt P03126, C104S/C118S/C147S/C87S/L57A); conditions: 10 μM reactide 18
MBP-16E6 [4] = biological target: T1, MBP-16E6; conditions: 1 μM MBP-16E6, Dha peptide mixture 12 μM, 2 h, 37° C.
[5] = biological target: SARS-CoV-2 3C-Like Protease; conditions: role: inhibitor; comparison drug; cited from earlier work
MBP-16E6 [6] = biological target: T1, MBP-16E6; assay: biochemical
THRA = biological target: T2, THRA (Homo sapiens, UniProt P10827); type: binding
T2 sequence (P10827 148-410 limits assumed): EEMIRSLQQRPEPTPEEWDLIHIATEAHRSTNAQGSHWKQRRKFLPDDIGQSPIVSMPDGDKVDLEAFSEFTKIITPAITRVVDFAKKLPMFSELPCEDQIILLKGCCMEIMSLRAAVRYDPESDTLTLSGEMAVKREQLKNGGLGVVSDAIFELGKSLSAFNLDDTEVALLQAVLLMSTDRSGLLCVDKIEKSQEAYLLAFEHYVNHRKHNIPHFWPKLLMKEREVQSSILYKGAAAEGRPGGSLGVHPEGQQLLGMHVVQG

[7] = biological target: bovine serum albumin (BSA) (Bos taurus, UniProt P02769); assay: Crosslinking in a protein mixture, BSA; type: binding; conditions: 10 μM peptide, 37° C., 12 h
bovine serum albumin (BSA), sequence (P02769 25-607): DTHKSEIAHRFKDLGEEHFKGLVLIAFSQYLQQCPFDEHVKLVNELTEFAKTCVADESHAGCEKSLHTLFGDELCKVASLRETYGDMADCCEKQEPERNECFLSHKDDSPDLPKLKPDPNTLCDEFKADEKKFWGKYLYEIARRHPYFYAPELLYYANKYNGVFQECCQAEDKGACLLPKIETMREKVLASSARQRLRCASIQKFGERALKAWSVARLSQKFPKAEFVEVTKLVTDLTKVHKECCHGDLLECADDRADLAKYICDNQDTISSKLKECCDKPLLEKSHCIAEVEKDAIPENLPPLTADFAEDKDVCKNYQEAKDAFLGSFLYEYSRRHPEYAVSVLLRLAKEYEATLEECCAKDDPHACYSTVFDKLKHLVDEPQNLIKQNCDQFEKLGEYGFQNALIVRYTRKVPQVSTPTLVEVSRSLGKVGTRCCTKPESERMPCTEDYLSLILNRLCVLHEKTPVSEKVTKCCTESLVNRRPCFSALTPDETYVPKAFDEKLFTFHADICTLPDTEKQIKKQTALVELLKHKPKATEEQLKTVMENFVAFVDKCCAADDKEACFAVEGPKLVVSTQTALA

Sumo-MDM2 = Sumo-MDM2 (Homo sapiens, UniProt Q00987); assay: Crosslinking in a protein mixture, Sumo-MDM2; type: binding; conditions: 10 μM peptide, 37° C., 12 h
Sumo-MDM2, sequence (Q00987 25-109): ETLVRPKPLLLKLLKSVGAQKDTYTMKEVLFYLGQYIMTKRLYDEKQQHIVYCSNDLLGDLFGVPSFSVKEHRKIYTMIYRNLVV

16E6/E6AP = 16E6/E6AP (Human papillomavirus 16, UniProt P03126, C104S/C118S/C147S/C87S); conditions: 1 μM MBP-16E6

## C=C(NC(=O)[C@H](C)NC(=O)[C@H](C)NC(=O)[C@H](CCC(=O)O)NC(=O)C(C)(C)NC(=O)[C@H](C)NC(=O)[C@@H](NC(=O)[C@H](Cc1ccc2ccccc2c1)NC(=O)[C@@H](N)CCCC(=O)O)C1CCCC1)C(=O)N[C@@H](CCC(=O)O)C(=O)N[C@@H](CCC(=O)O)C(=O)N[C@@H](CCCNC(=N)N)C(N)=O [Peptide 18-3L3A] (H-[Aad][2Nal][Gly(cPent)]A[Aib]EAA[Dha]EER-NH2)
MBP-16E6 [1]; BLI
  binding to MBP-16E6: no observable binding
MBP-16E6 [2]
  crosslinking to MBP-16E6: no observable crosslinking

## C=C(NC(=O)[C@H](CC(C)C)NC(=O)[C@H](CC1CCC1)NC(=O)[C@H](CCC(=O)O)NC(=O)C(C)(C)NC(=O)[C@H](CC(C)C)NC(=O)[C@@H](NC(=O)[C@H](Cc1ccc2ccccc2c1)NC(=O)[C@@H](N)CCCC(=O)O)C1CCCC1)C(=O)N[C@@H](CCC(=O)O)C(=O)N[C@@H](CCC(=O)O)C(=O)N[C@@H](CCCNC(=N)N)C(N)=O [peptide 18] (H-[Aad][2Nal][Gly(cPent)]L[Aib]E[Cba]L[Dha]EER-NH2)
MBP-16E6 [1]
  improved affinity compared to parent reactide ELT-DHA9G: 50 fold
MBP-16E6 [2]; 10 μM reactide, 1 μM MBP-16E6, PBS, 37° C., 2 h
  mono-crosslinking: > 95%
MBP-16E6 [2]
  crosslinking to MBP-16E6: Quantitative mono-crosslinked
MBP-16E6 C58S; 10 μM reactide 18
  crosslinking to C58S: No crosslinking
MBP-16E6 [3]; kinetic study, kinact/Ki
  improvement over E3 (ELT-DHA9G): 50 fold
MBP-16E6 [3]; role: inhibitor
  kinact/Ki: 22700 M⁻¹ s⁻¹
MBP-16E6 [3]; role: inhibitor, first-order rate constant, steady-state approximation
  kinact: 0.018 s⁻¹
MBP-16E6 L57A
  crosslinking to L57A: no crosslinking
MBP-16E6 [4]
  mono-crosslink yield in competitive mixture: 83%

## CC(C)(C)[C@H](NC(=O)C(F)(F)F)C(=O)N1C[C@H]2[C@@H]([C@H]1C(=O)N[C@H](C#N)C[C@@H]1CCNC1=O)C2(C)C [nirmatrelvir]
[5]
  kinact/Ki: 55000 M⁻¹ s⁻¹

## C=C(NC(=O)[C@H](CC(C)C)NC(=O)[C@H](CC1CCC1)NC(=O)[C@H](CCC(=O)O)NC(=O)C(C)(C)NC(=O)[C@H](CC(C)C)NC(=O)[C@@H](NC(=O)[C@H](CCCCNC(=O)Cn1c2ccccc2c2ccccc21)NC(=O)[C@H](CCCC(=O)O)NC(C)=O)C1CCCC1)C(=O)N[C@@H](CCC(=O)O)C(=O)N[C@@H](CCC(=O)O)C(=O)N[C@@H](CCCNC(=N)N)C(N)=O [Peptide 18-Naf2Cab] (Ac-[Aad]K(X1)[Gly(cPent)]L[Aib]E[Cba]L[Dha]EER-NH2)
MBP-16E6 [2]
  mono-crosslink yield at 1 h: 83%
  mono-crosslink in 2 h: quantitatively mono-crosslink
MBP-16E6 [6]
  Ki: 51 ± 11 nM

## C=C(NC(=O)[C@H](CC(C)C)NC(=O)[C@H](CC(C)C)NC(=O)[C@H](CCC(=O)O)NC(=O)[C@H](CCC(N)=O)NC(=O)[C@H](CC(C)C)NC(=O)[C@@H](NC(=O)[C@H](CC(C)C)NC(=O)[C@H](CCC(=O)O)NC(=O)[C@H](C)NC(=O)[C@H](CO)NC(=O)[C@H](CCC(N)=O)NC(=O)[C@@H]1CCCN1C(=O)[C@@H](NC(=O)CC1c2ccccc2-c2ccccc21)[C@@H](C)CC)[C@@H](C)O)C(=O)N[C@@H](CCCNC(=N)N)C(=O)N[C@@H](CCCNC(=N)N)C(=O)N[C@@H](CCCCN)C(=O)N[C@@H](CCCCN)C(=O)N[C@@H](CCCCNC(=O)c1cccc2cc3ccccc3cc12)C(N)=O [reactide 13] ({Acetyl(9-fluorenyl)}-IPQSAELTLQELL[Dha]RRKKK(Anthracene1carbonyl)-NH2)
THRA
  crosslink to THRA: no crosslink
[7]
  modification of BSA: no observable modifications
Sumo-MDM2
  modification of MDM2: no observable modifications
MBP-16E6 [2]
  crosslinking to MBP-16E6: Quantitative mono-crosslinked
MBP-16E6 [2]; protein mixture with BSA and Sumo-MDM2 (1 μM each), 10 μM peptide, 37° C., 12 h
  mono-crosslinked conversion of 16E6 in protein mixture: > 95%
MBP-16E6 C58S; 3 μM peptide
  crosslinking to C58S: No crosslinking
MBP-16E6 C58S; 3 μM peptide, listed as peptide 13
  crosslinking to C58S: no appreciable amount of reaction product
16E6/E6AP
  BLI response signal to immobilized E6AP protein: significantly decreased BLI response signal

## CC[C@H](C)[C@H](NC(=O)c1c(F)c(F)c(F)c(F)c1F)C(=O)N1CCC[C@H]1C(=O)N[C@@H](CCC(=O)O)C(=O)N[C@@H](CO)C(=O)N[C@@H](CO)C(=O)N[C@@H](CCC(=O)O)C(=O)N[C@@H](CC(C)C)C(=O)N[C@H](C(=O)N[C@@H](CC(C)C)C(=O)N[C@@H](CCC(N)=O)C(=O)N[C@@H](CCC(=O)O)C(=O)N[C@@H](CC(C)C)C(=O)N[C@@H](CC(C)C)C(=O)NCC(=O)N[C@@H](CCC(=O)O)C(=O)N[C@@H](CCC(=O)O)C(=O)N[C@@H](CCCNC(=N)N)C(=O)N[C@@H](CCCNC(=N)N)C(N)=O)[C@@H](C)O [Peptide N16]
MBP-16E6 [1]; N-terminal modified peptides, KD of WT divided by KD
  Ratio to wild-type: 10.7
MBP-16E6 [6]; KD in nM, N-terminal modified peptides, competition mode, N = 2 or 3, SEM of curve fitting
  Kd: 228 ± 74 nM

## C=C(NC(=O)[C@H](CC(C)C)NC(=O)[C@H](CC1CCC1)NC(=O)[C@H](CCC(=O)O)NC(=O)C(C)(C)NC(=O)[C@H](CC(C)C)NC(=O)[C@@H](NC(=O)[C@H](Cc1ccc2ccccc2c1)NC(=O)[C@H](CCCC(=O)O)NC(=O)[C@H](C)NC(=O)[C@H](CO)NC(=O)[C@H](CCC(N)=O)NC(=O)[C@@H]1CCCN1C(=O)[C@@H](NC(=O)Cn1c2ccccc2c2ccccc21)[C@@H](C)CC)C1CCCC1)C(=O)N[C@@H](CCC(=O)O)C(=O)N[C@@H](CCC(=O)O)C(=O)N[C@@H](CCCNC(=N)N)C(N)=O [Peptide 18-Car-IPQSA] (X1-IPQSA[Aad][2Nal][Gly(cPent)]L[Aib]E[Cba]L[Dha]EER-NH2)
MBP-16E6 [1]
  improvement of binding relative to peptide 18: 7 fold
MBP-16E6 [2]
  mono-crosslink yield at 1 h: 85%
  mono-crosslink in 2 h: quantitatively mono-crosslink
MBP-16E6 [6]
  Ki: 25 ± 5.5 nM

## C=C(NC(=O)[C@H](CC(C)C)NC(=O)[C@H](CC1CCC1)NC(=O)[C@H](CCC(=O)O)NC(=O)C(C)(C)NC(=O)[C@H](CC(C)C)NC(=O)[C@@H](NC(=O)[C@H](Cc1ccc2ccccc2c1)NC(=O)[C@H](CCCC(=O)O)NC(=O)[C@H](C)NC(=O)[C@H](CO)NC(=O)[C@H](CCC(N)=O)NC(=O)[C@@H]1CCCN1C(=O)[C@@H](NC(=O)Cn1c2ccccc2c2ccccc21)[C@@H](C)CC)C1CCCC1)C(N)=O [18-Car-IPQSA-truncEER] (X1-IPQSA[Aad][2Nal][Gly(cPent)]L[Aib]E[Cba]L[Dha]-NH2)
MBP-16E6 [2]
  mono-crosslink yield at 1 h: 76%
  mono-crosslink in 2 h: quantitatively mono-crosslink
MBP-16E6 [6]
  Ki: 44 ± 11 nM

## C=C(NC(=O)[C@H](CC(C)C)NC(=O)[C@H](CC1CCC1)NC(=O)[C@H](CCC(=O)O)NC(=O)C(C)(C)NC(=O)[C@H](CC(C)C)NC(=O)[C@@H](NC(=O)[C@H](Cc1ccc2ccccc2c1)NC(=O)[C@H](CCCC(=O)O)NC(=O)Cn1c2ccccc2c2ccccc21)C1CCCC1)C(=O)N[C@@H](CCC(=O)O)C(=O)N[C@@H](CCC(=O)O)C(=O)N[C@@H](CCCNC(=N)N)C(N)=O [Peptide 18-Car] (X1-[Aad][2Nal][Gly(cPent)]L[Aib]E[Cba]L[Dha]EER-NH2)
MBP-16E6 [1]
  improvement of binding relative to peptide 18: 3 fold
MBP-16E6 [2]
  mono-crosslink in 2 h: quantitatively mono-crosslink
MBP-16E6 [6]
  Ki: 96 ± 33 nM
